Laboratory results from patent publication US8106073B2, “Quinoline derivatives 057” (AstraZeneca AB, priority 2007, dated 2012).
Read-outs that look alike come from different tables or passages of the source.

Tests used:
Bioavailability - Rat PK = format: in vivo, male Sprague Dawley rats; details: male, Sprague Dawley, plasma, oral 5 mg/kg vs IV 3 mg/kg
Method: Pharmacokinetic parameters and concepts are used in DMPK to describe the fate of a compound in the body. The distribution and excretion of a compound are reflected in the plasma concentration-time profile. By appropriate dosing, sampling and analysis key as parameters (clearance, volume, half-life, bioavailability etc.) can be determined.
Test compounds were typically dosed intravenously to the right lateral tail vein of male Sprague Dawley rats at a dose level of 3 mg/kg (1 ml/kg) in DMA:water (40:60 v/v). Rats were dosed orally at a dose level of 5 mg/kg (2 ml/kg) in 0.5% hydroxypropylmethylcellulose (HPMC, w/v)/0.1% Tween 80 (v/v) in water). […]
To determine the plasma levels of test compound, 50 μl of methanol was added to 50 μl of each of the test samples, whilst 40 μl of methanol was added to the 50 μl aliquots of control plasma containing 10 μl spikes of authentic standard used to create a calibration line and QCs. […] The resultant supernatants were analysed by HPLC-MSMS after an appropriate, selective and sensitive method had been created by optimizing both cone voltage and collision energy.
Pharmacokinetic parameters were derived from concentration-time using non-compartmental analysis in WinNonLin®. Bioavailability was calculated using the following equation F=AUCPO*DoseIV/AUCIV*DosePO.

[1] = Plasma protein binding (equilibrium dialysis); format: in vitro ADME; details: pH 7.4; human plasma, 37° C., 5 μM compound; read-out: human plasma protein binding (% bound) (converted)
Method: The extent of plasma protein binding was determined via equilibrium dialysis of a compound between human plasma and aqueous buffer at 37° C., and determination of the concentrations of compound in the plasma and buffer by HPLC-MS/MS.
Dialysis cells (molecular weight cut-off 5000) were prepared by rinsing with water followed by soaking in the dialysis buffer for a minimum of 1 hour. The dialysis buffer was isotonic buffered saline pH 7.4. Stock solutions of compound in dimethylsulfoxide were prepared at a concentration of 0.5 mM.
The stock DMSO solution of compound was added to the plasma at a ratio of 10 μl of DMSO to each ml of plasma. This gave a 1% DMSO in plasma solution with each compound at a concentration of 5 μM.
Dialysis cells were then prepared and one half of the cell filled with 750 μl of dialysis buffer and the other half of the cell with 750 μl of plasma solution of compound. […]
The samples were then analysed using HPLC-MS/MS. […]
The concentration of compound in the samples were determined using MassLynx version 4.1 software (produced by Waters/Micromass) that automatically calculated a calibration curve and interpolated the concentration of compound in the analytes. Plasma protein binding was determined from the measured concentration as the percentage of compound bound in plasma (% bound) using the following equation;

[2] = molecular target: T1, ion channel subunit encoded by the human ether-a-go-go-related gene (hERG) (Homo sapiens, UniProt Q12809); experiment: hERG binding protocol (radioligand competition, HEK cell membranes expressing hERG); details: for P2X7:hERG Ratio: ratio of P2X7:hERG affinity
T1 construct: expressed in transfected cells; host or cells: HEK (human embryonic kidney) cells, membranes
Method: (§1) The hERG assay was performed according to the procedure described in WO2005/037052. The affinity (pIC50) of compounds for the ion channel subunit encoded by the human ether-a-go-go-related gene (hERG) gene was determined by competition binding of radioligand 3,7-Bis[2-(4-nitro[3,5-^3H]phenyl)ethyl]-3,7-diazabicyclo[3.3.1]nonane to HEK (human embryonic kidney) cell membranes expressing hERG, in a filter wash format.
(§2) Membranes were incubated for 3 hours at room temperature with serial dilutions of the test compounds, radioligand 3,7-Bis[2-(4-nitro[3, 5-3H]phenyl)ethyl]-3,7-diazabicyclo[3.3.1]nonane at 1 nM final concentration, and assay buffer (10 mM HEPES, 130 mM NaCl, 5 mM KCl, 1 mM EGTA, 0.8 mM MgCl2, pH 7.4). The assay was conducted in a final volume of 200 μL, in the presence of 1% (v/v) dimethyl sulphoxide. Non-specific binding was determined by measuring the binding of 3,7-Bis[2-(4-nitro[3,5-^3H]phenyl)ethyl]-3,7-diazabicyclo[3.3.1]nonane in the presence of 10 μM astemizole. During this incubation GF/B filter plates were immersed in coating solution 0.3% (v/v) Polyethylenimine and 0.2% (w/v) BSA). Following incubation assay plates were harvested onto precoated GF/B filter plates using a Tomtec harvester.
(§3) The pIC50, defined as the negative logarithm of the concentration of compound required for 50% reduction in 3,7-Bis[2-(4-nitro[3,5-^3H]phenyl)ethyl]-3,7-diazabicyclo[3.3.1]nonane binding, was determined. A ‘less than’ FIGURE indicates <50% inhibition at the quoted concentration, this being the highest concentration tested.

hERG = molecular target: T2, hERG (Homo sapiens, UniProt Q12809); experiment: as above; details: human, HEK cell membranes expressing hERG, pH 7.4; highest concentration tested
T2 construct: expressed in transfected cells; host or cells: HEK (human embryonic kidney) cells, membranes
Method: as §1, §2, §3

primary rat hepatocytes = experiment: In vitro phospholipidosis protocol (DHPE-TRITC accumulation); format: cell-based, Han Wistar rats
Method: Assessment of a compounds potential to induce phospholipidosis was determined by an in vitro fluorescent assay which reports the accumulation of phospholipids in primary rat hepatocytes. Hepatocytes were isolated from Han Wistar rats by a 2-stage collagenase digest method. The hepatocytes were then plated on collagen coated 96-well plates in William's E medium. The cells were left to adhere for 1 hour then the media was replaced with a solution of 250 μg.ml^−1 collagen in Hepatozyme cell culture medium.
Cells were then cultured for 48 hours with the medium being changed at 24 hours. At 48 hours post isolation the medium was changed to Hepatozyme supplemented with the fluorescent phospholipid N-(6-tetramethylrhodaminethiocarbamoyl)-1,2-dihexadecanoyl-sn-glycero-3-phosphoethanolamine (DHPE-TRITC) (5 μg.ml^−1). At this time, test compounds were added to the hepatocytes at a range of concentrations in a serial dilution with a final concentration of 0.4% dimethylsulfoxide (used as solvent for test compounds).
The cells were incubated for a further 24 hours and then fixed by addition of a phosphate buffered saline (PBS) solution containing the nuclear stain Hoechst 33342 (final concentration 2 μM) and paraformaldehyde solution (final concentration 4%). The plates were kept at room temperature for 30 minutes then washed three times in PBS solution.
Images of the hepatocytes were then acquired using an automated microscope platform (GE In Cell Analyser 3000). Image analysis algorithms were then used to assess cell viability and the accumulation of the DHPE-TRITC label within viable hepatocytes. The quantified accumulation observed with test compounds was then normalised to a range of 0, representing the accumulation observed in cells exposed to vehicle only, and 1, representing cells exposed to 10 μM amiodarone. The maximum accumulation across the dose response of the test compound, where cell viability is >50%, is reported, as is the dose at which this maximum was observed. The lowest dose that caused >50% cell toxicity is also reported. […]

P2X7 receptor = molecular target: T3, P2X7 receptor (Homo sapiens, UniProt Q99572); experiment: P2X7 assay (bbATP-induced ethidium bromide fluorescence in THP-1 cells); format: cell-based
T3 construct: 200 μl of a suspension of THP-1 cells; endogenous in cells; host or cells: THP-1 cells
T3 sequence (Q99572 1-595): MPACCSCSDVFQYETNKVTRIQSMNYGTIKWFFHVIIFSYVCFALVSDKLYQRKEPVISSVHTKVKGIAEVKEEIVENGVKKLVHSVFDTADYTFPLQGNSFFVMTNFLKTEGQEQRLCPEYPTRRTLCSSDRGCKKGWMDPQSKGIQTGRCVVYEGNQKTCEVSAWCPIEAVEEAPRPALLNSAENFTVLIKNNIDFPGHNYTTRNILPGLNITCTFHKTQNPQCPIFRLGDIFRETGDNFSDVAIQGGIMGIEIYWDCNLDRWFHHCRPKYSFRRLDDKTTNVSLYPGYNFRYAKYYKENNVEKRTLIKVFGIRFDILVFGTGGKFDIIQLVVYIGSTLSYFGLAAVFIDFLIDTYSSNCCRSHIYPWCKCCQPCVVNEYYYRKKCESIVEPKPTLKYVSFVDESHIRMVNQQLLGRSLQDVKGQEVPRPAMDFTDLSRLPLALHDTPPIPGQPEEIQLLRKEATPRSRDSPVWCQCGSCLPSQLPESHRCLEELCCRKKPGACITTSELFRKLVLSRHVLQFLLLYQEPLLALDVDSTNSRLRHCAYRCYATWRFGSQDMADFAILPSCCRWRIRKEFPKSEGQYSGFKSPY
Text: Certain compounds such as benzoylbenzoyl adenosine triphosphate (bbATP) are known to be agonists of the P2X7 receptor, effecting the formation of pores in the plasma membrane (Drug Development Research (1996), 37(3), p. 126). Consequently, when the receptor is activated using bbATP in the presence of ethidium bromide (a fluorescent DNA probe), an increase in the fluorescence of intracellular DNA-bound ethidium bromide is observed. The increase in fluorescence can be used as a measure of P2X7 receptor activation and therefore to quantify the effect of a compound on the P2X7 receptor.
In this manner, the compound of the invention was tested for antagonist activity at the P2X7 receptor. Thus, the test was performed in 96-well flat bottomed microtitre plates, the wells being filled with 250 μl of test solution comprising 200 μl of a suspension of THP-1 cells (2.5×10^6 cells/ml) containing 10^−4M ethidium bromide, 25 μl of a high potassium buffer solution containing 10^−5M bbATP, and 25 μl of the high potassium buffer solution containing concentrations of test compound typically from 30 μM-0.001 μM. The plate was covered with a plastic sheet and incubated at 37° C. for one hour. The plate was then read in a Perkin-Elmer fluorescent plate reader, excitation 520 nm, emission 595 nm, slit widths: Ex 15 nm, Em 20 nm. […]

T1 sequence (Q12809 whole entry): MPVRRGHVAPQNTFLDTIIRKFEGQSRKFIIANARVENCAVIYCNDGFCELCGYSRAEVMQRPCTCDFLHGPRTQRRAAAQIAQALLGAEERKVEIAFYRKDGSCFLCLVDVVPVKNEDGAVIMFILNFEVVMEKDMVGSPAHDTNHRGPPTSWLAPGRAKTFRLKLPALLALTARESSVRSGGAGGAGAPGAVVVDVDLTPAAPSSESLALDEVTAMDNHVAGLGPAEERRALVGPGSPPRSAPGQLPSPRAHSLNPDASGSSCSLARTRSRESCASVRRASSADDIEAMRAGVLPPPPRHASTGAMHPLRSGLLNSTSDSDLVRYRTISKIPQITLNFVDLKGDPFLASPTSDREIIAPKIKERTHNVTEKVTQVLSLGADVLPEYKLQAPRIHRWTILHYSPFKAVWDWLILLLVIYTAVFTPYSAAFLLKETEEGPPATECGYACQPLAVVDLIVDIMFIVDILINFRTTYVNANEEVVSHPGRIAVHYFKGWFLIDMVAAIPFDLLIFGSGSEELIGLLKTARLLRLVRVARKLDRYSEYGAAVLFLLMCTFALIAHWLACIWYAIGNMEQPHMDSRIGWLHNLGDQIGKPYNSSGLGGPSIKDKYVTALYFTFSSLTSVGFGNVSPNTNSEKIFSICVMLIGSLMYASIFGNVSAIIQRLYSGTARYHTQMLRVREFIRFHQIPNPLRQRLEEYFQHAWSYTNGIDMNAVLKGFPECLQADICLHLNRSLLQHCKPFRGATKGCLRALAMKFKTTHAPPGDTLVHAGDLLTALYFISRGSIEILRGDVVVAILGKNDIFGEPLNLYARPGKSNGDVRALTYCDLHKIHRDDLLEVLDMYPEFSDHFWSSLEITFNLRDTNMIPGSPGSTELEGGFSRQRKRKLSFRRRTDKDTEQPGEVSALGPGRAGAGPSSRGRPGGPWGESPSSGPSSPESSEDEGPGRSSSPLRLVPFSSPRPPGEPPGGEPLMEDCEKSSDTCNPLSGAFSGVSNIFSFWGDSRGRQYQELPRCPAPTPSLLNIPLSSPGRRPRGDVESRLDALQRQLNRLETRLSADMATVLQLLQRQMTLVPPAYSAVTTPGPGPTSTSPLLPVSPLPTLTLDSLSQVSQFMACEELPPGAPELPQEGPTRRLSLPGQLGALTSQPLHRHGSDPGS
T2 sequence (Q12809 whole entry): as above

bioavailability (Bioavailability - Rat PK): 14% | fraction unbound at 5 µM [1]: 0.3 | melting point: 138 to 140 °C | IC50 (P2X7 receptor; 10^-5M bbATP, antagonist activity, read-out: P2X7 pIC50 (converted)): 3.98 nM | IC50 (P2X7 receptor; bbATP, read-out: P2X7 IC50): ≤ 5 nM
SMILES: O=C(NCC1(O)CCCCCC1)c1c(Cl)ccc2nc(N3CC[C@H](NCCO)C3)ccc12 [Example 1, 6-Chloro-N-[(1-hydroxycycloheptyl)methyl]-2-{(3S)-3-[(2-hydroxyethyl)amino]-pyrrolidin-1-yl}quinoline-5-carboxamide]
IC50 ([2]; radioligand competition binding): > 100000 nM | P2X7:hERG Ratio [2]: >20,000 | P2X7:hERG Ratio ([2]; listed as compound according to the present invention): > 20,000 | inhibition at 3 h (hERG): < 50% | maximum accumulation concentration (primary rat hepatocytes; dose at which maximum accumulation was observed): 71 µM | minimum toxic concentration (primary rat hepatocytes; lowest dose that caused >50% cell toxicity): 198 µM | maximum accumulation (phospholipidosis) (primary rat hepatocytes; relative to 10 μM amiodarone control (=1), vehicle = 0, cell viability >50%): 0.9
